According to patent publication US8815951B2, “Inhibitors of epoxide hydrolases for the treatment of inflammation” (The Regents of the University of California, priority 1996, dated 2014):
Where “and” joins values, the source holds several entries; their conditions need not be identical. Equal entries are not always repeated. Entries after “also recorded” stand apart in the source; their conditions may differ. Where two headings read alike, the source gives them in different places.

Legend:
[1] = molecular target: recombinant mouse sEH (MsEH) (Mus musculus (Mouse), UniProt P34914); test: Spectrophotometric sEH inhibition assay (NEP2C substrate), recombinant mouse sEH; format: biochemical
Protocol: (§1) Recombinant mouse sEH (MsEH) and human sEH (HsEH) were produced in a baculovirus expression system as previously reported. […] The expressed proteins were purified from cell lysate by affinity chromatography. […] Protein concentration was quantified using the Pierce BCA assay using bovine serum albumin as the calibrating standard.
(§2) The mixture was incubated at 30° C. for 5 minutes. […] Assays were performed in quadruplicate.

Human sEH (HsEH) = Human sEH (HsEH) (Homo sapiens (Human), UniProt P34913); test: Spectrophotometric sEH inhibition assay (NEP2C substrate), recombinant human sEH; format: biochemical
Protocol: as §1, §2

Swiss Webster mice = test: Leukotoxin/isoleukotoxin-induced death in mice; format: in vivo, mouse; details: pretreatment 400 mg/kg i.p. in corn oil, 30 minutes before leukotoxin/isoleukotoxin methyl esters 700 mg/kg i.v.
Protocol: Male Swiss Webster mice (25-28 g) were purchased from Simonsen, Gilroy, Calif. The animals had free access to water and food. […] After 30 minutes of the pretreatment, the mice were treated intravenously through the tail vein with a 1:1 mixture of leukotoxin/isoleukotoxin methyl esters in ethanol (700 mg/kg, 1.0 ml/kg).

CYP epoxygenase = test: Renal microsomal arachidonic acid metabolism, CYP epoxygenase activity; format: biochemical, rat; details: concentrations up to 25 μM
Protocol: Renal microsomal arachidonic acid metabolism. Microsomes, cytosol, and S9 fractions were prepared from the renal cortex or outer medulla samples from a single animal as described previously (Kroetz, D. L. et al. Mol Pharmacol 52, 362-372 (1997), Su, P. et al. Am J Physiol 275, […]-438 (1998)). Reaction conditions for the in vitro determination of arachidonic acid epoxygenase activity, metabolite extraction and HPLC analysis were described in detail elsewhere (Su, P. et al. Am J Physiol 275, […]-438 (1998)).

CYP ω-hydroxylase = test: Renal microsomal arachidonic acid metabolism, ω-hydroxylase activity; format: biochemical, rat; details: concentrations up to 25 μM
[2] = tested on: 14,15-EET hydrolysis in vivo (sEH), SHR; test: Urinary DHET and EET excretion in SHR (GC-MS); set-up: species or system rat; details: 3 mg/kg i.p. daily, 24 hr urine after third dose, vehicle 2020
[3] = tested on: SHR (spontaneously hypertensive rat); test: Systolic blood pressure by tail cuff in SHR; format: in vivo; details: for decrease in systolic blood pressure 6 hr after the dose / time by which blood pressure returned to baseline after the dose: single dose 3 mg/kg DCU or equimolar; for effect on blood pressure in the SHR: dose equimolar to 3 mg/kg DCU
From the text: Animals. Male SHR and WKY rats 3-13 wks of age were purchased from Charles River Laboratories (Wilmington, Mass.) and housed in a controlled environment with 12 hr light/dark cycles and fed standard laboratory chow for □ 3 days before euthanasia. All animal use was approved by the University of California San Francisco Committee on Animal Research and followed the National Institutes of Health guidelines for the care and use of laboratory animals. For isolation of kidney subcellular fractions, rats were anesthetized with methoxyflurane, the abdominal cavities were opened, and the kidneys were perfused with ice-cold saline. Perfused kidneys were rapidly removed, the cortex and medulla dissected out and immersed in liquid nitrogen. All tissue was stored at −80° C. until preparation of microsomes. In some cases WKY and SHR rats were housed in metabolic cages for up to three days and urine was collected over triphenylphosphine in 24 hr intervals. The urine volume was noted and aliquots were stored at −80° C. prior to extraction and quantitation of DHETs and EETs. […] Systolic blood pressure was measured at room temperature by a photoelectric tail cuff system (Model 179, IITC, Inc., Woodland Hills, Calif.) for up to four days following the dose of inhibitor. Blood pressures are reported as the average of three separate readings over a 30 min period. […] Similar inhibition studies were carried out with equimolar doses of N-cyclohexyl-N′-dodecylurea, N-cyclohexyl-N′-ethylurea and dodecylaamine.

WKY rats = test: Systolic blood pressure by tail cuff in WKY rats; format: in vivo, rat; details: single 3 mg/kg dose
From the text: Animals. Male SHR and WKY rats 3-13 wks of age were purchased from Charles River Laboratories (Wilmington, Mass.) and housed in a controlled environment with 12 hr light/dark cycles and fed standard laboratory chow for □ 3 days before euthanasia. All animal use was approved by the University of California San Francisco Committee on Animal Research and followed the National Institutes of Health guidelines for the care and use of laboratory animals. For isolation of kidney subcellular fractions, rats were anesthetized with methoxyflurane, the abdominal cavities were opened, and the kidneys were perfused with ice-cold saline. Perfused kidneys were rapidly removed, the cortex and medulla dissected out and immersed in liquid nitrogen. All tissue was stored at −80° C. until preparation of microsomes. In some cases WKY and SHR rats were housed in metabolic cages for up to three days and urine was collected over triphenylphosphine in 24 hr intervals. The urine volume was noted and aliquots were stored at −80° C. prior to extraction and quantitation of DHETs and EETs. […] Systolic blood pressure was measured at room temperature by a photoelectric tail cuff system (Model 179, IITC, Inc., Woodland Hills, Calif.) for up to four days following the dose of inhibitor. Blood pressures are reported as the average of three separate readings over a 30 min period. […]

[4] = tested on: insect cell culture expressing rat mEH; test: Toxicity of epoxide-containing xenobiotics in insect cell culture expressing rat mEH; format: cell-based
From the text: The micosomal enzyme play a significant role in the metabolism of xenobiotics such as polyaromatic toxicants. Additionally, polymorphism studies have underlined a potential role of this enzyme in relation to several diseases, such as emphysema, spontaneous abortion and several forms of cancer. Inhibition of recombinant rat and human mEH can be obtained using primary ureas, amides, and amines. […].

[5] = Table 2, MsEH […], read-out: Mouse sEH IC50
[6] = Table 1, MsEH […], read-out: Mouse sEH IC50
[7] = Table 1, HsEH 0.2 μM (text b16: […])
[8] = unpublished data, C. Morisseau and B. Hammock, 2000, read-out: IC50 with mouse sEH

SMILES | IC50 [1, 5] [µM] | IC50 (Human sEH (HsEH); Table 2, HsEH […]) [µM] | further results
O=C(c1ccccc1)C1OC1c1ccc(-c2c(F)c(F)c(F)c(F)c2F)cc1 (racemic) [4-C6F5—C6H4 / C6H5 / C═O / ±] | 0.14 ± 0.01 | 0.2 ± 0.01 | –
Cc1ccc(C(O)C2OC2c2ccc(-c3ccccc3)cc2)cc1 (racemic) [4-C6H5—C6H4 / 4-CH3—C6H4 / CH—OH / ±] | 0.09 ± 0.01 | 0.15 ± 0.02 | –
Cc1ccc(C(=O)C2OC2c2ccc(-c3ccccc3)cc2)cc1 (racemic) [4-C6H5—C6H4 / 4-CH3—C6H4 / C═O / ±] | 0.1 ± 0.01 | 0.19 ± 0.03 | –
COC(c1ccccc1)C1OC1c1ccc(-c2ccccc2)cc1 (racemic) [4-C6H5—C6H4 / C6H5 / CH—OCH3 / ±] | 0.48 ± 0.05 | 1.36 ± 0.07 | –
OC(c1ccccc1)C1OC1c1ccc(-c2ccccc2)cc1 (racemic) [4-C6H5—C6H4 / C6H5 / CH—OH / ±] | 0.51 ± 0.04 | 0.72 ± 0.03 | –
ON=C(c1ccccc1)C1OC1c1ccc(-c2ccccc2)cc1 (racemic) [4-C6H5—C6H4 / C6H5 / C═NOH / ±] | 42 ± 3 | 35 ± 1 | –
[O-][S+](c1ccccc1)C1OC1c1ccc(-c2ccccc2)cc1 (racemic) [4-C6H5—C6H4 / C6H5 / S═O / ±] | 73 ± 5 | 70 ± 3 | –
OC(c1ccccc1)C1OC1c1ccc(F)cc1 (racemic) [4-F-C6H4 / C6H5 / CH—OH / ±] | 72 ± 16 | 18 ± 2 | –
O=C(c1ccccc1)C1OC1c1ccc(F)cc1 (racemic) [4-F-C6H4 / C6H5 / C═O / ±] | 1.3 ± 0.3 | 0.3 ± 0.1 | –
CC(O)C1OC1c1ccc([N+](=O)[O-])cc1 (racemic) [4-NO2—C6H4 / CH3 / CH—OH / ±] | 6.5 ± 0.2 | 39 ± 1 | –
CC(=O)C1OC1c1ccc([N+](=O)[O-])cc1 (racemic) [4-NO2—C6H4 / CH3 / C═O / ±] | 163 ± 11 | 269 ± 5 | –
O=[N+]([O-])c1ccc(C2OC2CO)cc1 (racemic) [4-NO2—C6H4 / H / CH—OH / ±] | 5 ± 1 | – | –
COC(c1ccccc1)C1OC1c1ccccc1 (racemic) [C6H5 / C6H5 / CH—OCH3 / ±] | 103 ± 5 | 34 ± 1 | –
OC(c1ccccc1)C1OC1c1ccccc1 (racemic) [C6H5 / C6H5 / CH—OH / ±] | 12.6 ± 0.9 | 22 ± 2 | –
ON=C(c1ccccc1)C1OC1c1ccccc1 (racemic) [C6H5 / C6H5 / C═NOH / ±] | 3.5 ± 0.5 | 0.29 ± 0.01 | –
O=C(c1ccccc1)C1OC1c1ccccc1 (racemic) [C6H5 / C6H5 / C═O / ±] | 2.9 ± 0.3 | 0.3 ± 0.1 | –
[O-][S+](c1ccccc1)C1OC1c1ccccc1 (racemic) [C6H5 / C6H5 / S—O / ±] | 2.3 ± 0.4 | 0.31 ± 0.02 | –

SMILES | IC50 [1, 5] [µM] | IC50 (Human sEH (HsEH); Table 2, HsEH […]) [µM] | further results
O=[N+]([O-])c1ccc(C2OC2CO)cc1 (stereo not drawn) [4-NO2—C6H4 / H / CH—OH / R,R] | 1200 ± 25 | – | –
O=[N+]([O-])c1ccc(C2OC2CO)cc1 (stereo not drawn) [4-NO2—C6H4 / H / CH—OH / S,S] | 1.6 ± 0.6 | – | –
OCC1OC1c1ccccc1 (stereo not drawn) [C6H5 / H / CH—OH / R,R] | 1100 ± 23 | – | –
OCC1OC1c1ccccc1 (stereo not drawn) [C6H5 / H / CH—OH / S,S] | 2400 ± 46 | – | –
O=C(Nc1ccc(Cl)cc1)NC1CCCCC1 [Compound 20] | – | – | IC50 [1, 6]: 0.19 ± 0.02 µM; IC50 (Human sEH (HsEH); [7]): 0.4 ± 0.05 µM
O=C(Nc1ccc(O)cc1)NC1CCCCC1 [Compound 128] | – | – | IC50 [1, 6]: 0.79 ± 0.08 µM; IC50 (Human sEH (HsEH); [7]): 11.1 ± 0.8 µM
CCCCCCCCCCCCNC(=O)NC1CCCCC1 [Compound 297] | – | – | IC50 [1, 6]: 0.05 ± 0.01 µM
O=C(Nc1ccc(Cl)c(Cl)c1)Nc1ccc(Cl)c(Cl)c1 [Compound 299] | – | – | IC50 [1, 6]: 0.7 ± 0.1 µM
CC(C)(C)CC(C)(C)NC(=O)NC1CCCCC1 [Compound 347] | – | – | IC50 [1, 6]: 0.07 ± 0.01 µM; IC50 (Human sEH (HsEH); [7]): 3.1 ± 0.07 µM
CCCCCCCCNC(=O)NCCC [Compound 429] | – | – | IC50 [1, 6]: 0.38 ± 0.04 µM; IC50 (Human sEH (HsEH); [7]): 1.7 ± 0.4 µM
CCCCCCCCCCCCNC(=O)CC1CCCCC1 [Compound 514] | – | – | IC50 [1, 6]: 0.27 ± 0.01 µM
O=C(NC1CCCCC1)NC1CCCCC1 [DCU, N,N′-dicyclohexylurea] | – | – | effect on animal death induced by leukotoxin/isoleukotoxin (Swiss Webster mice): either blocked the animal death induced by leukotoxin/isoleukotoxin or lengthened the lives of the mice; effect on CYP epoxygenase activity (CYP epoxygenase): no effect; effect on ω-hydroxylase activity (CYP ω-hydroxylase): no effect; excretion of total epoxygenase-derived products (EETs and DHETs) [2]: 1237 pg/mg creatinine; decrease in systolic blood pressure 6 hr after the dose ([3]; SHR): 22±4 mm Hg and 22 mm Hg; time by which blood pressure returned to baseline after the dose ([3]; SHR): ≤ 24 h; systolic blood pressure ([3]; SHR, three to five hr after the fourth daily 3 mg/kg dose, vehicle 128±5): 102±5 mm Hg; effect on blood pressure in the WKY (WKY rats): no effect; also recorded: unaffected
CCCCCCCCCCCCNC(=O)NC1CCCCC1 [N-cyclohexyl-N′-dodecylurea] | – | – | IC50 [1, 8]: 0.05 ± 0.01 µM; decrease in systolic blood pressure 6 hr after the dose ([3]; SHR): 12±2 mm Hg and 12 mm Hg; time by which blood pressure returned to baseline after the dose ([3]; SHR): ≤ 24 h
CCNC(=O)NC1CCCCC1 [N-cyclohexyl-N′-ethylurea] | – | – | IC50 [1, 8]: 51.7 ± 0.7 µM; effect on blood pressure in the SHR [3]: no effect
CCCCCCCCCCCCN [dodecylamine, reference compound] | – | – | effect on blood pressure in the SHR [3]: no effect
CCCCCCCC/C=C/CCCCCCCC(N)=O [elaidamide] | – | – | effect on toxicity of epoxide-containing xenobiotics [4]: enhances the toxicity effects of epoxide-containing xenobiotics
